Reference: US20230097883A1, “ERGOTHIONEINE PET COMPOUNDS AND METHODS OF USE THEREOF” (VANDERBILT UNIVERSITY, priority 2021, published 2023)
“Also recorded” adds a separate entry of the source.

Columns and labels:
[1] = tested on: neuroblastoma SH-SY5Y cells; experiment: DCFH-DA ROS scavenging assay in SH-SY5Y cells; format: cell-based
Excerpt: We used a commercially available DCFH-DA (2′,7′-dichlorodihydrofluorescein diacetate) probe to assess the ROS scavenging power of ERGO in HeLa and neuroblastoma SH-SY5Y cells. Upon penetrating the cytoplasm, DCFH-DA is deacetylated by endogenous esterases to a non-fluorescent intermediate, followed by oxidation by free radicals. This generates a continuous and extended conjugation system, resulting in the production of highly fluorescent DCF (2′ 7′-dichlorofluorescein). In an aqueous condition, DCF has a maximal excitation and emission of 495 nm and 529 nm, respectively. Well-adhered HeLa or SH-SY5Y cells previously incubated with DCFH-DA were exposed to a commercial ROS initializer and ERGO concentrations ranging from 0-100 mM. […] Each point in the assay was measured in pentaplicate, p<0.0001.
On day 1, HeLa cells or SH-SY5Y cells were seeded into a 96-well plate with a density of 10,000 cells/mL. […] Immediately afterwards, fluorescence measurement began using a microplate reader (Biotek Industries, Agilent Technologies, Winooski, Vt., USA) with an excitation and emission wavelength of 485 nm and 528 nm, respectively. Each ERGO concentration was measured in pentaplicate.

oxidative stress = experiment: Dynamic microPET uptake and retention of [11C]ERGO in brains of 5XFAD versus WT mice; format: in vivo, mouse; details: 10-month-old, n=4, 14.8 MBq in 0.1 mL via tail vein
Method: Dynamic uptake and retention of [^11C]ERGO radioligand. Two cohorts of age-matched mice (10-month-old, n=4, each), including 5XFAD and WT animals, were injected with a consistent amount of 14.8 MBq of [^11C]ERGO in 0.1 mL via the tail vein prior to acquiring dynamic imaging. […] In this work, we decided to run 20-min dynamic scans to test, as a proof-of-concept, whether the affinity of ERGO for radicals and/or metals, which are integrated in or very closely associated with Abeta aggregates, would trap the probe. […] The mean percent of ID/g in the brains of 5XFAD mice (n=4) were 0.81±0.09, 0.72±0.09, 0.72±0.10, 0.71±0.12, 0.72±0.08, 0.83±0.10 for cortex, hippocampus, striatum, thalamus, cerebellum and whole brain, respectively, whereas for WT mice (n=4), the values were 0.52±0.13, 0.47±0.18, 0.47±0.15, 0.42±0.18, 0.51±0.13, 0.55±0.14. […] 5XFAD brains are associated with high levels of GFAP and IBA1 expression. After PET/CT imaging, animals underwent through the cardiac perfusion process, and the brains were embedded in OCT solution for micro-sectioning. […] The hippocampal regions of 5XFAD mice, including the dentate gyrus (DG), Cornu ammonis (CA) and the surrounding regions are populated with astrocytes, which were detected and quantified by immunostaining using anti-GFAP antibody. […] Quantitatively, about 2-fold higher levels of this inflammatory marker is found in 5XFAD versus control mice (*p<0.05). In a similar observation, 5XFAD mouse brains have greater numbers of IBA1-positive activated microglia (arrows) compared to WT counterparts.
Dynamic PET imaging. The dynamic acquisition was divided into twelve 5 sec frames, four 60 sec frames, five 120 sec frames, three 5 min frames, and six 10 min scans. The data from all possible lines of response (LOR) were saved in the list mode raw data format. The raw data were then binned into 3D sinograms with a span of 3 and ring difference of 47. The images were reconstructed into transaxial slices (128×128×159) with voxel sizes of 0.0815×0.0815×0.0796 cm^3, using the MAP algorithm with 16 subsets, 4 iterations, and a beta of 0.0468. For anatomical co-registration, immediately following the PET scans, the mice received a CT scan in a NanoSPECT/CT (Mediso, Wash. D.C.) at an X-ray beam intensity of 90 mAs and x-ray peak voltage of 45 kVp. The CT images were reconstructed into 170×170×186 voxels at a voxel size of 0.4×0.4×0.4 mm^3. The PET/CT images were uploaded into Amide software (www.sourceforge.com), co-registered to an MRI template made in-house, and volumetric regions-of-interest were drawn around the cortex, hippocampus, striatum, thalamus, and cerebellum in addition to the whole brain. The PET images were normalized to the injected dose, and the time-activity-curves (TACs) of the mean activity within the ROIs were estimated for the entire duration of the scans.

SMILES | DCF fluorescence signal (ROS) ([1]; ERGO 100 mM) | DCF fluorescence signal (ROS) ([1]; ERGO starting from 5 mM) | mean percent of ID/g, cerebellum (oxidative stress; 5XFAD mice) | mean percent of ID/g, cortex (oxidative stress; 5XFAD mice) | mean percent of ID/g, hippocampus (oxidative stress; 5XFAD mice) | mean percent of ID/g, striatum (oxidative stress; 5XFAD mice) | mean percent of ID/g, thalamus (oxidative stress; 5XFAD mice) | mean percent of ID/g, whole brain (oxidative stress; 5XFAD mice) | mean percent of ID/g, cerebellum (oxidative stress; WT mice) | mean percent of ID/g, cortex (oxidative stress; WT mice) | mean percent of ID/g, hippocampus (oxidative stress; WT mice) | mean percent of ID/g, striatum (oxidative stress; WT mice) | mean percent of ID/g, thalamus (oxidative stress; WT mice) | mean percent of ID/g, whole brain (oxidative stress; WT mice)
C[N+](C)(C)[C@@H](Cc1c[nH]c(=S)[nH]1)C(=O)[O-] [ERGO, L-ergothioneine] | nearly negligible; also recorded: quenches the fluorescence totally | attenuates the fluorescence significantly |  |  |  |  |  |  |  |  |  |  |  | 
C[N+](C)([11CH3])[C@@H](Cc1c[nH]c(=S)[nH]1)C(=O)[O-] [[^11C]ERGO] |  |  | 0.72±0.08% of ID/g | 0.81±0.09% of ID/g | 0.72±0.09% of ID/g | 0.72±0.10% of ID/g | 0.71±0.12% of ID/g | 0.83±0.10% of ID/g | 0.51±0.13% of ID/g | 0.52±0.13% of ID/g | 0.47±0.18% of ID/g | 0.47±0.15% of ID/g | 0.42±0.18% of ID/g | 0.55±0.14% of ID/g
